Test results as given in patent US20190224202A1, “STABLE LIQUID FORMULATIONS OF PEMETREXED” (LEIUTIS PHARMACEUTICALS PVT. LTD., priority 2015, published 2019).

Key:
[1] = Solubility of Pemetrexed diacid in water (statement); type: physicochemical
[2] = Solubility study of Pemetrexed diacid in various amino acids in water; type: physicochemical; conditions: 25° C.
Experimental: Solubility studies of Pemetrexed were performed with various amino acids alone and in combination with other excipients in water at 25° C. to check the solubility.

Nc1nc2[nH]cc(CCc3ccc(C(=O)N[C@@H](CCC(=O)O)C(=O)O)cc3)c2c(=O)[nH]1 [Pemetrexed diacid, N-{4-[2-(2-Amino-4-oxo-4,7-dihydro-1H-pyrrolo[2,3-d]pyrimidin-5-yl)ethyl]benzoyl}-L-glutamic acid]
Solubility in water [1]: practically insoluble
Description (solubility study) ([2]; Pemetrexed diacid 50 mg, Arginine 116 mg, Water 1 ml): Clear
Description (solubility study) ([2]; Pemetrexed diacid 50 mg, Arginine 133 mg, Water 1 ml): Clear
Description (solubility study) ([2]; Pemetrexed diacid 50 mg, Arginine 166 mg, Water 1 ml): Clear
Description (solubility study) ([2]; Pemetrexed diacid 100 mg, Histidine 100 mg, Glycine 50 mg, Ammonium acetate 100 mg, Sucrose 50 mg, Water 2.5 ml): Clear
Description (solubility study) ([2]; Pemetrexed diacid 100 mg, Histidine 100 mg, Glycine 50 mg, Ammonium acetate 100 mg, Water 2.5 ml): Clear
Description (solubility study) ([2]; Pemetrexed diacid 100 mg, Histidine 100 mg, Glycine 100 mg, Ammonium acetate 100 mg, Sucrose 50 mg, Water 2.5 ml): Clear
Description (solubility study) ([2]; Pemetrexed diacid 100 mg, Histidine 100 mg, Glycine 100 mg, Ammonium acetate 100 mg, Water 2.5 ml): Clear
Description (solubility study) ([2]; Pemetrexed diacid 100 mg, Histidine 100 mg, Glycine 100 mg, Sucrose 50 mg, Water 2.5 ml): Clear
Description (solubility study) ([2]; Pemetrexed diacid 100 mg, Histidine 100 mg, Glycine 100 mg, Water 2.5 ml): Clear
Description (solubility study) ([2]; Pemetrexed diacid 100 mg, Histidine 100 mg, Glycine 200 mg, Ammonium acetate 100 mg, Sucrose 50 mg, Water 2.5 ml): Clear
Description (solubility study) ([2]; Pemetrexed diacid 100 mg, Histidine 100 mg, Glycine 200 mg, Ammonium acetate 100 mg, Water 2.5 ml): Clear
